{"source": "PubChem BioAssay (NCI)", "assay_in_all_cases": "growth of human tumour cells (NCI), 48 h", "key": {"[1]": {"test_system": "COLO 205 colon"}, "[2]": {"test_system": "SF-295 CNS"}, "[3]": {"test_system": "HT29 colon"}, "[4]": {"test_system": "T-47D breast"}, "[5]": {"test_system": "NCI/ADR-RES ovarian"}, "[6]": {"test_system": "DU-145 prostate"}, "[7]": {"test_system": "HL-60(TB) leukemia"}, "[8]": {"test_system": "SNB-75 CNS"}, "[9]": {"test_system": "MCF7 breast"}, "[10]": {"test_system": "MDA-MB-435"}, "[11]": {"test_system": "NCI-H226 lung"}, "[12]": {"test_system": "SNB-19 CNS"}, "[13]": {"test_system": "SN12C renal"}, "[14]": {"test_system": "U251 CNS"}, "[15]": {"test_system": "SK-MEL-28 melanoma"}, "[16]": {"test_system": "UO-31 renal"}, "[17]": {"test_system": "HCC-2998 colon"}, "[18]": {"test_system": "LOX IMVI melanoma"}, "[19]": {"test_system": "HOP-62 NSCLC"}, "[20]": {"test_system": "UACC-62 melanoma"}, "[21]": {"test_system": "KM12 colon"}, "[22]": {"test_system": "HCT-116 colon"}, "[23]": {"test_system": "OVCAR-5 ovarian"}, "[24]": {"test_system": "K-562 leukemia"}, "[25]": {"test_system": "A498 renal"}, "[26]": {"test_system": "SK-MEL-5 melanoma"}, "[27]": {"test_system": "SK-MEL-2 melanoma"}, "[28]": {"test_system": "OVCAR-4 ovarian"}, "[29]": {"test_system": "NCI-H522 lung"}}, "note": "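Interpolation was linear, between the two tested concentrations surrounding the appropriate level; five concentrations were tested over 48 hours in 96-well plates. GI50 marks 50% less growth. TGI denotes the concentration required for complete inhibition of growth.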", "data": [{"smiles": "OC(COc1cccc2ccccc12)CN1CCN(c2ccccc2Cl)CC1", "note": "(stereo not drawn)", "values": [{"measurement": "GI50", "setting": "[1]", "value": 11.9, "unit": "µM"}, {"measurement": "TGI", "setting": "[1]", "value": 25, "unit": "µM"}, {"measurement": "GI50", "setting": "[2]", "value": 11.9, "unit": "µM"}, {"measurement": "TGI", "setting": "[2]", "value": 26.9, "unit": "µM"}, {"measurement": "GI50", "setting": "[3]", "value": 3.3, "unit": "µM"}, {"measurement": "TGI", "setting": "[3]", "value": 12.5, "unit": "µM"}, {"measurement": "GI50", "setting": "[4]", "value": 13.9, "unit": "µM"}, {"measurement": "TGI", "setting": "[4]", "value": 29.6, "unit": "µM"}, {"measurement": "GI50", "setting": "[5]", "value": 13.2, "unit": "µM"}, {"measurement": "TGI", "setting": "[5]", "value": 28.6, "unit": "µM"}, {"measurement": "GI50", "setting": "[6]", "value": 14.6, "unit": "µM"}, {"measurement": "TGI", "setting": "[6]", "value": 28.5, "unit": "µM"}, {"measurement": "GI50", "setting": "[7]", "value": 12.7, "unit": "µM"}, {"measurement": "TGI", "setting": "[7]", "value": 44.2, "unit": "µM"}, {"measurement": "GI50", "setting": "[8]", "value": 11.2, "unit": "µM"}, {"measurement": "TGI", "setting": "[8]", "value": 24.7, "unit": "µM"}, {"measurement": "GI50", "setting": "[9]", "value": 14.7, "unit": "µM"}, {"measurement": "TGI", "setting": "[9]", "value": 28.3, "unit": "µM"}, {"measurement": "GI50", "setting": "[10]", "value": 14.5, "unit": "µM"}, {"measurement": "TGI", "setting": "[10]", "value": 30.4, "unit": "µM"}, {"measurement": "GI50", "setting": "[11]", "value": 15, "unit": "µM"}, {"measurement": "TGI", "setting": "[11]", "value": 31.6, "unit": "µM"}, {"measurement": "GI50", "setting": "[12]", "value": 14.5, "unit": "µM"}, {"measurement": "TGI", "setting": "[12]", "value": 30.2, "unit": "µM"}, {"measurement": "GI50", "setting": "[13]", "value": 12.5, "unit": "µM"}, {"measurement": "TGI", "setting": "[13]", "value": 25.4, "unit": "µM"}, {"measurement": "GI50", "setting": "[14]", "value": 17.1, "unit": "µM"}, {"measurement": "TGI", "setting": "[14]", "value": 31.6, "unit": "µM"}, {"measurement": "GI50", "setting": "[15]", "value": 14.5, "unit": "µM"}, {"measurement": "TGI", "setting": "[15]", "value": 27.9, "unit": "µM"}, {"measurement": "GI50", "setting": "[16]", "value": 4.17, "unit": "µM"}, {"measurement": "TGI", "setting": "[16]", "value": 18.7, "unit": "µM"}, {"measurement": "GI50", "setting": "[17]", "value": 14.8, "unit": "µM"}, {"measurement": "TGI", "setting": "[17]", "value": 29.3, "unit": "µM"}, {"measurement": "GI50", "setting": "[18]", "value": 14.2, "unit": "µM"}, {"measurement": "TGI", "setting": "[18]", "value": 30.2, "unit": "µM"}, {"measurement": "GI50", "setting": "[19]", "value": 13.7, "unit": "µM"}, {"measurement": "TGI", "setting": "[19]", "value": 27.3, "unit": "µM"}, {"measurement": "GI50", "setting": "[20]", "value": 12.2, "unit": "µM"}, {"measurement": "TGI", "setting": "[20]", "value": 24.8, "unit": "µM"}, {"measurement": "GI50", "setting": "[21]", "value": 11.8, "unit": "µM"}, {"measurement": "TGI", "setting": "[21]", "value": 25.9, "unit": "µM"}, {"measurement": "GI50", "setting": "[22]", "value": 10.8, "unit": "µM"}, {"measurement": "TGI", "setting": "[22]", "value": 24.5, "unit": "µM"}, {"measurement": "GI50", "setting": "[23]", "value": 11.5, "unit": "µM"}, {"measurement": "TGI", "setting": "[23]", "value": 24.1, "unit": "µM"}, {"measurement": "GI50", "setting": "[24]", "value": 4.58, "unit": "µM"}, {"measurement": "TGI", "setting": "[24]", "value": 17.6, "unit": "µM"}, {"measurement": "GI50", "setting": "[25]", "value": 12.3, "unit": "µM"}, {"measurement": "TGI", "setting": "[25]", "value": 24.9, "unit": "µM"}, {"measurement": "GI50", "setting": "[26]", "value": 15.2, "unit": "µM"}, {"measurement": "TGI", "setting": "[26]", "value": 28.9, "unit": "µM"}, {"measurement": "GI50", "setting": "[27]", "value": 15.4, "unit": "µM"}, {"measurement": "TGI", "setting": "[27]", "value": 29.5, "unit": "µM"}, {"measurement": "GI50", "setting": "[28]", "value": 12.6, "unit": "µM"}, {"measurement": "TGI", "setting": "[28]", "value": 25.8, "unit": "µM"}, {"measurement": "GI50", "setting": "[29]", "value": 10.6, "unit": "µM"}, {"measurement": "TGI", "setting": "[29]", "value": 25.1, "unit": "µM"}]}]}
